Source: publication PMC8568530, “Inhibition of Vascular Smooth Muscle and Cancer Cell Proliferation by New VEGFR Inhibitors and Their Immunomodulator Effect: Design, Synthesis, and Biological Evaluation” (Oxidative Medicine and Cellular Longevity, 2021)

How the values were obtained:
[1] = tested on: MCF-7; assay: MTT antiproliferative assay, MCF-7; assay type: cell-based; conditions: Homo sapiens, MCF7, breast cancer MCF-7
Experimental: (§1) The in vitro antiproliferative activities of the newly synthesized compounds were evaluated against a panel of three human tumor cell lines, namely, breast cancer (MCF-7), hepatocellular carcinoma (HepG-2), and colorectal carcinoma (HCT-116) using the standard MTT method. The tested cell lines were selected depending on their VEGF overexpression. Sorafenib, the lead drug, was coassayed as a positive control.
(§2) The antiproliferative activity of the synthesized compounds was evaluated using MTT protocol as described (Supplementary data (available here)).

[2] = tested on: HepG-2; assay: MTT antiproliferative assay, HepG-2; assay type: cell-based; conditions: Homo sapiens, HepG2, hepatocellular carcinoma HepG-2
Experimental: as §1, §2

[3] = tested on: HCT-116; assay: MTT antiproliferative assay, HCT-116; assay type: cell-based; conditions: Homo sapiens, colorectal carcinoma HCT-116
Experimental: as §1, §2

[4] = tested on: WI-38 cell line (normal human lung fibroblasts); assay: MTT cytotoxicity against normal cells WI-38; assay type: cell-based; conditions: normal human lung fibroblasts WI-38
Experimental: The cytotoxicity values of the synthesized compounds against the WI-38 cell line (normal human lung fibroblasts) were also evaluated in vitro.
as §2

[5] = biological target: VEGFR-2 (Homo sapiens, UniProt P35968); assay: In vitro VEGFR-2 enzyme inhibition assay; assay type: biochemical; conditions: read-out: IC50 against VEGFR-2
Chain of VEGFR-2 (P35968 20-1356): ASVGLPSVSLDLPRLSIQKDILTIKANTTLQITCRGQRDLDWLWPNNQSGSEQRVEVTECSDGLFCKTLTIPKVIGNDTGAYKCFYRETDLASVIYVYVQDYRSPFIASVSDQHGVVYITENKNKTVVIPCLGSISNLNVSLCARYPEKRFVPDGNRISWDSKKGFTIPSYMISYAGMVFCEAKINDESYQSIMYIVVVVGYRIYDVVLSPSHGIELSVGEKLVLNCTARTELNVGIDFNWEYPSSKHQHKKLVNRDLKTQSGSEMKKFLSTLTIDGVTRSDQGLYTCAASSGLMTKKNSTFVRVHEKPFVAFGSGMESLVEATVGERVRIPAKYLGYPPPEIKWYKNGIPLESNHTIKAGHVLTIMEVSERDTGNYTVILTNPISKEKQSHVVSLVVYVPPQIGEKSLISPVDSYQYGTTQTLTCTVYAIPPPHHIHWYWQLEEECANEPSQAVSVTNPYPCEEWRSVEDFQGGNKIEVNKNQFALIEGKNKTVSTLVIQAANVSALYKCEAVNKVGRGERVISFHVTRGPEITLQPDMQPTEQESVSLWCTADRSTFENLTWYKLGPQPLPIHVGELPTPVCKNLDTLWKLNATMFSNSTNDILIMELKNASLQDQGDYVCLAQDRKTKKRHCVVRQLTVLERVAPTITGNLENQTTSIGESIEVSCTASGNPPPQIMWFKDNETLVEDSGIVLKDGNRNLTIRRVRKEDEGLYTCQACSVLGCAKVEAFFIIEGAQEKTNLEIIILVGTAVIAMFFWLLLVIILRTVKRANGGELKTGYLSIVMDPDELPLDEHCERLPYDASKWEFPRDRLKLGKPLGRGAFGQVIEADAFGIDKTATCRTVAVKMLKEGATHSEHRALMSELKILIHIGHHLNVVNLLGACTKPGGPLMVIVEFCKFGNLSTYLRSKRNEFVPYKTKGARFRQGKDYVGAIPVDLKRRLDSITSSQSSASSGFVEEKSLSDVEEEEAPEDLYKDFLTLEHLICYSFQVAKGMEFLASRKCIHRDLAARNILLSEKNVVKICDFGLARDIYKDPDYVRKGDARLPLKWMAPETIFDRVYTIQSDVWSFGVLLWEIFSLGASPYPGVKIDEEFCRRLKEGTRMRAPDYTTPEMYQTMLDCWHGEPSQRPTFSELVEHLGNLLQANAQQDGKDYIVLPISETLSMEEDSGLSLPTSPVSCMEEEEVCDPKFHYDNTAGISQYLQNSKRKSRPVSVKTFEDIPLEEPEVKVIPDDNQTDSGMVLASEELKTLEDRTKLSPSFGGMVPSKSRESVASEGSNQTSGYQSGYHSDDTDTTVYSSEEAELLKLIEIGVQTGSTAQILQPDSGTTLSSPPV

[6] = tested on: caspase-3; assay: Active caspase-3 level in HepG-2 cells; assay type: cell-based, human; conditions: for Caspase 3 Conc.: HepG-2 cells treated with compound; for Caspase 3 Fold: HepG-2 cells, versus control
Description: (1) Effects on the Levels of Active Caspase-3. A significant mechanism by which anticancer agents can affect cancer cells is apoptosis. Apoptosis is a process of automated cell death. The apoptosis mechanism is typically mediated by a group of proteases called caspases. Caspase-3 is activated in every mammalian cell type provoking the cell to die, considered one of the apoptosis marks.
(1) Effects on the Levels of Active Caspase-3. […] (Supplementary data).

[7] = tested on: BAX; assay: BAX level in HepG-2 cells; assay type: cell-based, human; conditions: for BAX Conc.: HepG-2 cells treated with compound; for BAX Fold: HepG-2 cells, versus control
Description: (§3) (2) Effects on Bcl-2 Family Proteins. The Bcl-2 family proteins are vital regulators of apoptosis cell death. Members of this family include the proapoptotic factor Bax which promotes cell death and the prosurvival (antiapoptotic) Bcl-2 which suppresses cell death. […] Results are expressed in Table 3.
(§4) (2) Effects on Bcl-2 Family Proteins. […] (Supplementary data).

[8] = tested on: Bcl-2; assay: Bcl-2 level in HepG-2 cells; assay type: cell-based, human; conditions: for Bcl-2 Conc.: HepG-2 cells treated with compound; for Bcl-2 Fold: HepG-2 cells, versus control
Description: as §3, §4

[9] = tested on: TNF-α; assay: TNF-α in HepG-2 supernatant (ELISA); assay type: cell-based, human
Description: (1) Estimation of Human Tumor Necrosis Factor Alpha (TNF-α) in HepG-2 Supernatant. […] Celecoxib, a potent inhibitor of TNF-α-induced cytokine expressions, was used as a positive control. […] Among the tested compounds, compound 7a caused a remarkably significant reduction in TNF-α levels (87%) in comparison to celecoxib (86%).
The levels of TNF-α in cell culture supernatants were estimated by the ELISA technique according to the reported procedure.

[10] = tested on: MCF-7, HepG-2, and HCT-116; assay: MTT antiproliferative assay, panel of three tumor cell lines (range over lines); assay type: cell-based; conditions: Homo sapiens, range over the three cancer cell lines, read-out: cytotoxic IC50, range over MCF-7, HepG-2 and HCT-116
Experimental: as §1, §2

Compound | IC50 [1] [µM] | IC50 [3] [µM] | IC50 [5] [µM] | melting point [°C] | IC50 [2] [µM] | IC50 [4] [µM] | Caspase 3 Conc. [6] [pg/mL] | Caspase 3 Fold [6] [fold] | BAX Conc. [7] [pg/mL] | BAX Fold [7] [fold] | Bcl-2 Conc. [8] [pg/mL] | Bcl-2 Fold [8] [fold] | TNF-α % inhibition [9] [%] | IC50 [10] [µM]
O=C(Nc1ccc(C(=O)NC2CCCCC2)cc1)c1cccnc1 [Compound 5, N-(4-(Cyclohexylcarbamoyl)phenyl)nicotinamide] | 4.66 | 1.6 | 2.46 | – | 3.29 | 61.4 | 345.5 | 6.72 | 232.7 | 10.78 | 1.35 | 0.25 | 85 | –
COc1ccc(NC(=O)c2ccc(NC(=O)c3cccnc3)cc2)cc1 [Compound 7b, N-(4-((4-Methoxyphenyl)carbamoyl)phenyl)nicotinamide] | 1.25 | 2.54 | 3.45 | – | 2.12 | 82.2 | 397.61 | – | 257.5 | 11.93 | 1.92 | 0.36 | 72 | –
Cc1ccccc1NC(=O)c1ccc(NC(=O)c2cccnc2)cc1 [Compound 7f, N-(4-(o-Tolylcarbamoyl)phenyl)nicotinamide] | 20.5 | 18.3 | – | 194 to 197 | 31.4 | 157 | – | – | – | – | – | – | – | 14.1 to 31.4
Cc1cccc(NC(=O)c2ccc(NC(=O)c3cccnc3)cc2)c1 [Compound 7h, N-(4-(m-Tolylcarbamoyl)phenyl)nicotinamide] | 19.2 | 22.7 | – | 217 to 219 | 14.9 | 95.1 | – | – | – | – | – | – | – | 14.1 to 31.4
Cc1ccc(NC(=O)c2ccc(NC(=O)c3cccnc3)cc2)cc1 [Compound 7j, N-(4-(p-Tolylcarbamoyl)phenyl)nicotinamide] | 16.8 | 15.1 | – | 219 to 222 | 14.1 | 84.9 | – | – | – | – | – | – | – | 14.1 to 31.4
Cc1ccc(NC(=O)c2ccc(NC(=O)c3cccnc3)cc2)c(C)c1 [Compound 7k, N-(4-((2,4-Dimethylphenyl)carbamoyl)phenyl)nicotinamide] | 17.1 | 18.7 | – | 254 to 256 | 20.1 | 75.3 | – | – | – | – | – | – | – | 14.1 to 31.4

The next lines start with results.

IC50 [1] [µM] | IC50 [3] [µM] | IC50 [5] [µM] | melting point [°C] | Compound | IC50 [2] [µM] | IC50 [4] [µM] | Caspase 3 Conc. [6] [pg/mL] | Caspase 3 Fold [6] [fold] | BAX Conc. [7] [pg/mL] | BAX Fold [7] [fold] | Bcl-2 Conc. [8] [pg/mL] | Bcl-2 Fold [8] [fold] | TNF-α % inhibition [9] [%] | IC50 [10] [µM]
3.5 | 2.75 | 3.84 | – | O=C(Nc1ccc(F)cc1)c1ccc(NC(=O)c2cccnc2)cc1 [Compound 7l, N-(4-((4-Fluorophenyl)carbamoyl)phenyl)nicotinamide] | 2.64 | 68.2 | 340.42 | 6.62 | 226.9 | 10.51 | 2.11 | 0.39 | 74 | –
3.55 | 5.49 | 7.68 | – | O=C(NNC(=O)C(F)(F)F)c1ccc(NC(=O)c2cccnc2)cc1 [Compound 10, N-(4-(2-(2,2,2-Trifluoroacetyl)hydrazine-1-carbonyl)phenyl)nicotinamide] | 3.16 | 78.4 | 334.57 | 6.51 | 231.6 | 10.73 | 2.72 | 0.51 | 40 | –
6.29 | 5.72 | 8.09 | – | O=C(N/N=C/c1ccc([N+](=O)[O-])cc1)c1ccc(NC(=O)c2cccnc2)cc1 [Compound 11c, (E)-N-(4-(2-(4-Nitrobenzylidene)hydrazine-1-carbonyl)phenyl)-nicotinamide] | 7.31 | 52.3 | 271.41 | 5.28 | 133.2 | 6.17 | 2.81 | 0.52 | 31 | 3.47 to 7.31
4.15 | 1.94 | 2.74 | – | COc1ccc(/C=N/NC(=O)c2ccc(NC(=O)c3cccnc3)cc2)cc1 [Compound 11d, (E)-N-(4-(2-(4-Methoxybenzylidene)hydrazine-1-carbonyl)phenyl)-nicotinamide] | 2.23 | 50.3 | 391.23 | – | 237.9 | 11.02 | 1.72 | 0.32 | 81 | –
6.15 | 3.47 | 4.17 | – | O=C(N/N=C/c1ccccc1Cl)c1ccc(NC(=O)c2cccnc2)cc1 [Compound 11f, (E)-N-(4-(2-(2-Chlorobenzylidene)hydrazine-1-carbonyl)phenyl)-nicotinamide] | 7.05 | 62.4 | 292.11 | 5.68 | 142.5 | 6.60 | 2.25 | 0.42 | 60 | 3.47 to 7.31
5.73 | 4.8 | 6.12 | – | CN(C)c1ccc(/C=N/NC(=O)c2ccc(NC(=O)c3cccnc3)cc2)cc1 [Compound 11g, (E)-N-(4-(2-(4-(Dimethylamino)benzylidene)hydrazine-1-carbonyl)phenyl)-nicotinamide] | 6.42 | 70.1 | 324.36 | 6.31 | 160.2 | 7.42 | 2.55 | 0.48 | 47 | 3.47 to 7.31
5.81 | 5.13 | 5.23 | – | O=C(CSc1nnc(-c2cccnc2)o1)Nc1ccc(Cl)cc1 [Compound 18a, N-(4-Chlorophenyl)-2-((5-(pyridin-3-yl)-1,3,4-oxadiazol-2-yl)thio)acetamide] | 8.29 | 123 | 267.64 | 5.20 | 113.5 | 5.26 | 2.63 | 0.49 | 45 | –
2.67 | 4.19 | 6.57 | – | O=C(CSc1nnc(-c2cccnc2)o1)Nc1ccccc1 [Compound 18b, N-Phenyl-2-((5-(pyridin-3-yl)-1,3,4-oxadiazol-2-yl)thio)acetamide] | 6.11 | 64.3 | 310.75 | 6.04 | 154.4 | 7.15 | 2.51 | 0.47 | 54 | –
